Laboratory results reported in patent publication US20240376109A1, “PYRAZOLO[1,5-A]PYRIMIDINE COMPOUND FOR THE TREATMENT OF DERMAL DISORDERS” (OTSUKA PHARMACEUTICAL CO., LTD., priority 2021, published 2024).

What follows are compounds tested against T1, PAR2 (Homo sapiens, UniProt P55085) (assay: Intracellular calcium concentration measurement (SLIGKV-NH2-induced calcium change, Fluo-8, FDSS/μCELL)). Conditions: HEK293 cells; SLIGKV-NH2 10 μM-induced intracellular calcium change; read-out: IC50.
T1 construct: HEK293 cell lines derived from human embryonic kidney cultured in a MEM culture medium; endogenous in cells; host or cells: HEK293
T1 sequence (P55085 26-397): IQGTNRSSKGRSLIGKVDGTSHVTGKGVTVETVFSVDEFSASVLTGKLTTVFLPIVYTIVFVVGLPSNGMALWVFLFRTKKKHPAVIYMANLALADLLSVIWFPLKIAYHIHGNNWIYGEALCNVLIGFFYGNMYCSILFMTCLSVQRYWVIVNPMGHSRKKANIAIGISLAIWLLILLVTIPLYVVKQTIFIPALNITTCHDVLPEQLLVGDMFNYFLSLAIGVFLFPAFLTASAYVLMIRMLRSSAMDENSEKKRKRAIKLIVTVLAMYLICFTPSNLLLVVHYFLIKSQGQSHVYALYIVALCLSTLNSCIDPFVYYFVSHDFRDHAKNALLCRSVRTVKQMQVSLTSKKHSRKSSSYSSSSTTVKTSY
Format: cell-based

CC(C)c1cc(CC2CCC(F)CC2)nc2cc(C(=O)N3CCCCCC3)nn12 (stereo not drawn) [Example 153] and CC1CCC(Cc2cc(C(C)C)n3nc(C(=O)N4CCCCCC4)cc3n2)CC1 (stereo not drawn) [Example 21] are within 1.5-fold of each other in IC50: 282 nM for the first, 298 nM for the second.

Compared with CC1(C)CCCCN1C(=O)c1cc2nc(CC3CCCCC3)cc(C(F)(F)F)n2n1 [Example 31], Cc1cc(CC2CCCCC2)nc2cc(C(=O)N3CCCCC3(C)C)nn12 [Example 99] is 4.1-fold higher in IC50: 81 nM for the first, 336 nM for the second. The first is the more potent here.

CCC(CC)c1cc(CC2CCCC2)nc2cc(C(=O)N3CCCCCCC3)nn12 [Example 79] and CCC(CC)c1cc(CC2CCCCC2)nc2cc(C(=O)N3CCCCCC3)nn12 [Example 48] are within 1.5-fold of each other in IC50: 145 nM for the first, 105 nM for the second.

O=C(c1cc2nc(C3C4CC5CC(C4)CC3C5)cc(C(F)(F)F)n2n1)N1CCCCCC1 (stereo not drawn) [Example 84] and O=C(c1cc2nc(C3CCCCCC3)cc(C(F)(F)F)n2n1)N1CCCCCC1 [Example 60] are within 1.5-fold of each other in IC50: 274 nM for the first, 234 nM for the second.

CC(C)c1cc(CC2CCCCCC2)nc2cc(C(=O)N3CCCCCC3)nn12 [Example 46] and CC(C)c1cc(CC2CCCCC2)nc2cc(C(=O)N3CCCCCCC3)nn12 [Example 52] are within 1.5-fold of each other in IC50: 99 nM for the first, 107 nM for the second.

First: CC(C)c1cc(C23CC4CC(CC(C4)C2)C3)nc2cc(C(=O)N3CCCCCC3)nn12 [Example 22]
Second: CCCCCc1cc(C23CC4CC(CC(C4)C2)C3)nc2cc(C(=O)N3CCCCCC3)nn12 [Example 133]
The IC50 of the first is 2.6-fold lower: 137 nM for the first, 360 nM for the second.

First: CC1(C)COCCN1C(=O)c1cc2nc(C34CC5CC(CC(C5)C3)C4)cc(C(F)(F)F)n2n1 [Example 62]
Second: CC1(C)C(O)CCCN1C(=O)c1cc2nc(C34CC5CC(CC(C5)C3)C4)cc(C(F)(F)F)n2n1 (stereo not drawn) [Example 100]
The IC50 of the first is 2.3-fold higher: 52 nM for the first, 23 nM for the second. The second is the more potent here.

First: CC(C)c1cc(CC2(C)CCCCC2)nc2cc(C(=O)N3CCCCCC3)nn12 [Example 98]
Second: CC(C)c1cc(CC2CCC2)nc2cc(C(=O)N3CCCCCC3)nn12 [Example 45]
The IC50 of the first is 2.3-fold lower: 270 nM for the first, 632 nM for the second.

O=C(c1cc2nc(CC3CCCCC3)cc(C(F)(F)F)n2n1)N1CCCCCCC1 [Example 25] and CC(C)(C)c1cc(CC2CCCCC2)nc2cc(C(=O)N3CCCCCC3)nn12 [Example 28, azepan-1-yl-[7-tert-butyl-5-(cyclohexylmethyl)pyrazolo[1,5-a]pyrimidin-2-yl]methanone] are within 1.5-fold of each other in IC50: 49 nM for the first, 60 nM for the second.

First: CCC(C)c1cc(CC2CCCCC2)nc2cc(C(=O)N3CCSCC3)nn12 (stereo not drawn) [Example 128]
Second: CCC(C)c1cc(CC2CCCC2)nc2cc(C(=O)N3CCCCC3)nn12 (stereo not drawn) [Example 141]
The IC50 of the first is 2-fold lower: 151 nM for the first, 304 nM for the second.

Going from CCc1cc(CC2CCCCC2)nc2cc(C(=O)N3CCCCC3(C)C)nn12 [Example 35] to CC(C)c1cc(CC2CCCCC2)nc2cc(C(=O)N3CCCC(C)(O)C3(C)C)nn12 (stereo not drawn) [Example 107], the IC50 falls from 130 nM to 67 nM (1.9-fold). The second is the more potent here.

Compared with CC(C)c1cc(CC2CC3CCC2C3)nc2cc(C(=O)N3CCCCCC3)nn12 (stereo not drawn) [Example 154], CC(C)c1cc(CC2CCCCC2C)nc2cc(C(=O)N3CCCCCC3)nn12 (stereo not drawn) [Example 158] is 2.5-fold higher in IC50: 47 nM for the first, 117 nM for the second.

Going from CCCN(CC)c1cc(CC2CCCCC2)nc2cc(C(=O)N3CCCCCC3)nn12 [Example 131] to CCC(C)c1cc(CC2CCCCC2)nc2cc(C(=O)N3CCCCCCC3)nn12 (stereo not drawn) [Example 143], the IC50 falls from 225 nM to 91 nM (2.5-fold). The second is the more potent here.

COC1CCN(C(=O)c2cc3nc(CC4CCCC4)cc(C(F)(F)F)n3n2)C(C)(C)C1 (stereo not drawn) [Example 113] and CC1(C)CCCCN1C(=O)c1cc2nc(C3CCCC3)cc(C(F)(F)F)n2n1 [Example 162] are within 1.5-fold of each other in IC50: 263 nM for the first, 304 nM for the second.

Going from CCC(CC)c1cc(CC2CCCC2)nc2cc(C(=O)N3CCC(O)CC3(C)C)nn12 (stereo not drawn) [Example 106] to CCC(CC)c1cc(CC2CCCC2)nc2cc(C(=O)N3CCCC(=O)C3(C)C)nn12 [Example 68], the IC50 falls from 96 nM to 15 nM (6.4-fold). The second is the more potent here.

First: CC1(C)C(=O)CCCN1C(=O)c1cc2nc(C34CC5CC(CC(C5)C3)C4)cc(C(F)(F)F)n2n1 [Example 96]
Second: CC(C)(C)c1cc(C2CCCCC2)nc2cc(C(=O)N3CCCCCC3)nn12 [Example 43]
The IC50 of the first is 18-fold lower: 10 nM for the first, 185 nM for the second. The first is the more potent here.

Same assay, conditions: IC50 (nM)

For CC(C)c1cc(CC2CCC3CCCCC3C2)nc2cc(C(=O)N3CCCCCC3)nn12 (stereo not drawn) [Example 155], the IC50 was 218 nM.
